SMILES strings stand for the structures.

This is an account of results in ChEMBL document CHEMBL1156943, “Toward the development of potent and selective bisubstrate inhibitors of protein arginine methyltransferases” (Bioorg Med Chem Lett, 2010).

The target in assay [1] is T1, Histone-lysine N-methyltransferase SETD7 (Homo sapiens) (UniProt Q8WTS6).
T1 sequence (whole entry): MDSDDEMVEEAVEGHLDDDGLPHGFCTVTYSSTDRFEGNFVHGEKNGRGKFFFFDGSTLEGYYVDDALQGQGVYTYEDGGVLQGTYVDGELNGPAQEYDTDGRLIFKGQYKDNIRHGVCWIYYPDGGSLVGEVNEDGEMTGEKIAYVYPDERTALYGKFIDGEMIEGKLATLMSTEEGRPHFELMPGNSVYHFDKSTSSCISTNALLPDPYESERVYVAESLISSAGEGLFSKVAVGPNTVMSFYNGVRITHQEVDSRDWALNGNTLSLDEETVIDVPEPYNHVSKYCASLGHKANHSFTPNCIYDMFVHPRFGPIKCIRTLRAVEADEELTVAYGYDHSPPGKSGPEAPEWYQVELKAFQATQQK
As to the kind of experiment: Inhibition of GST-fused human recombinant SET7 at 100 uM after 90 mins by SDS-PAGE based scintillation counting.

Assay [2] deals with T2, Protein arginine N-methyltransferase 1 (Homo sapiens, UniProt Q99873). As to the kind of experiment: Inhibition of GST-fused human recombinant PRMT1 at 100 uM after 90 mins by SDS-PAGE based scintillation counting.
Target sequence in this assay (Q99873 whole entry, looked up, the tested form may be a part): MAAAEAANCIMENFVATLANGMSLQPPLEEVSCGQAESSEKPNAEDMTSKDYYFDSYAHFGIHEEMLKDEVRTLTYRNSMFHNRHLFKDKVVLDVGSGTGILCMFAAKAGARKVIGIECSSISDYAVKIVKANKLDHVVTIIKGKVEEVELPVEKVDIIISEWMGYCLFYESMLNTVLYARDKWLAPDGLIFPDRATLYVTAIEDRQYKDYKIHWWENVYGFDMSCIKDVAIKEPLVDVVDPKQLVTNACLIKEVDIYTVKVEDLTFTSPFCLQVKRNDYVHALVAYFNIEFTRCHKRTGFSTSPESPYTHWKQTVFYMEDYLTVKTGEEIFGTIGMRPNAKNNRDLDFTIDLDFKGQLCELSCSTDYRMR
In assay [3] the target is T2, Protein arginine N-methyltransferase 1. Put plainly: Inhibition of GST-fused human recombinant PRMT1 after 90 mins by SDS-PAGE based scintillation counting.
Target sequence in this assay (Q99873 whole entry, the tested form may be a part): as the sequence (Q99873 whole entry, looked up, the tested form may be a part) above
In assay [4] the target is T3, Histone-lysine N-methyltransferase SETD7 (Homo sapiens, UniProt Q8WTS6).
T3 sequence (Q8WTS6 whole entry): T1 sequence (whole entry)
Put plainly: Inhibition of GST-fused human recombinant SET7 after 90 mins by SDS-PAGE based scintillation counting.

Usually inhibition stands for the share of the control response that was lost under treatment. On to `N=C(N)NCCCCCN(CC[C@H](N)C(=O)O)C[C@H]1O[C@@H](n2cnc3c(N)ncnc32)[C@H](O)[C@@H]1O`, for which, in assay [1], the inhibition amounted to 55%. With `N=C(N)NCCn1cc(CN(CC[C@H](N)C(=O)O)C[C@H]2O[C@@H](n3cnc4c(N)ncnc43)[C@H](O)[C@@H]2O)nn1`, the inhibition in assay [2] and in assay [1] was > 50% throughout. Take `C#CCN(CC[C@H](N)C(=O)O)C[C@H]1O[C@@H](n2cnc3c(N)ncnc32)[C@H](O)[C@@H]1O`: the inhibition came to 50% in assay [2] and 75% in assay [1].

For `C#CCN(CC[C@H](NC(=O)OC(C)(C)C)C(=O)OC(C)(C)C)C[C@H]1O[C@@H](n2cnc3c(N)ncnc32)[C@@H]2OC(C)(C)O[C@@H]21`, the inhibition in assay [2] was determined as 77%; in assay [1], 63%. As a reminder, the IC50 is the concentration needed to halve the response being measured. Consider `N=C(N)NCCCCN(CC[C@H](N)C(=O)O)C[C@H]1O[C@@H](n2cnc3c(N)ncnc32)[C@H](O)[C@@H]1O`, for which the inhibition in assay [1] stood at 49%. For the same compound, the concentration for half-maximal inhibition (IC50) in assay [3] is 2900 nM. On to `Nc1ncnc2c1ncn2[C@@H]1O[C@H](C[C@@H](N)CC[C@H](N)C(=O)O)[C@@H](O)[C@H]1O` [SINEFUNGIN], for which, in assay [4], the IC50 worked out at 2500 nM.

Take `N=C(N)NCCCN(CC[C@H](N)C(=O)O)C[C@H]1O[C@@H](n2cnc3c(N)ncnc32)[C@H](O)[C@@H]1O`: the inhibition in assay [1] is 56.5%. Also, the IC50 in assay [3] amounted to 6200 nM.
